Reference: ChEMBL document CHEMBL1821642, “Discovery of 7-hydroxy-6-methoxy-2-methyl-3-(3,4,5-trimethoxybenzoyl)benzo[b]furan (BNC105), a tubulin polymerization inhibitor with potent antiproliferative and tumor vascular disrupting properties” (J Med Chem, 2011)
The source made the active and inactive calls. The rule behind the calls is not given here.

Key:
[1] = system: BT-549; assay: Antiproliferative activity against human BT549 after 48 hrs by spectrophotometry; format: functional, cell-based; conditions: BT-549, 48 h
[2] = system: Rattus norvegicus; assay: Volume of distribution at steady state in Sprague-Dawley rat at 6 umol/kg, iv; format: ADME, organism-based; conditions: in vivo
[3] = system: DU-145; assay: Antiproliferative activity against human DU145 after 48 hrs by spectrophotometry; format: functional, cell-based; conditions: DU-145, 48 h
[4] = system: HUVEC; assay: Antiproliferative activity against HUVEC grown in absence of growth factors after 48 hrs by spectrophotometry; format: functional, cell-based; conditions: Homo sapiens
[5] = system: A-431; assay: Antiproliferative activity against human A431 after 48 hrs by spectrophotometry; format: functional, cell-based; conditions: A-431, 48 h
[6] = system: Plasma; assay: Plasma protein binding in Sprague-Dawley rat at 6 umol/kg, iv; format: ADME, cell-free
[7] = system: HUVEC; assay: Antiproliferative activity against HUVEC grown in presence of growth factors after 48 hrs by spectrophotometry; format: functional, cell-based; conditions: Homo sapiens
[8] = system: Calu-6; assay: Antiproliferative activity against human Calu6 after 48 hrs by spectrophotometry; format: functional, cell-based; conditions: Calu-6, 48 h
[9] = system: AU565; assay: Antiproliferative activity against human AU565 after 48 hrs by spectrophotometry; format: functional, cell-based; conditions: AU565, 48 h
[10] = system: Rattus norvegicus; assay: Half life in Sprague-Dawley rat at 6 umol/kg, iv; format: ADME, organism-based; conditions: in vivo
[11] = system: MDA-MB-231; assay: Antitumor activity against human MDA-MB-231 xenografted in mouse assessed as tumor growth inhibition at 10 mg/kg administered on day 1 and 5; format: functional, organism-based; design: dose 10 mg/kg
[12] = system: MDA-MB-231; assay: Antitumor activity against human MDA-MB-231 xenografted in mouse assessed as tumor growth inhibition at 40 mg/kg administered on day 1 and 8 measured after 70 days; format: functional, organism-based; design: dose 40 mg/kg
[13] = Aqueous solubility of the compound; format: physicochemical; conditions: buffer
[14] = system: MCF7; assay: Antiproliferative activity against human MCF7 cells assessed after 48 hrs by spectrophotometry; format: functional, cell-based; conditions: MCF7, 48 h
[15] = Inhibition of tubulin polymerization by spectrophotometry
[16] = system: MDA-MB-231; assay: Antitumor activity against human MDA-MB-231 xenografted in mouse assessed as tumor growth inhibition at 150 mg/kg administered on day 1 and 5; format: functional, organism-based; design: dose 150 mg/kg
[17] = system: HUVEC; assay: Selectivity ratio of IC50 for HUVEC grown in absence of growth factors to IC50 for HUVEC grown in presence of growth factors; format: functional, Homo sapiens
[18] = system: 786-0; assay: Antiproliferative activity against MDR-1 overexpressing human 786-0 cells in presence of MDR1 inhibitor verapamil; format: functional, cell-based
[19] = system: 786-0; assay: Antiproliferative activity against MDR-1 overexpressing human 786-0 cells; format: functional, cell-based
[20] = system: MDA-MB-231; assay: Antiproliferative activity against human MDA-MB-231 after 48 hrs by spectrophotometry; format: functional, cell-based; conditions: MDA-MB-231, 48 h
[21] = system: SK-OV-3; assay: Antiproliferative activity against human SKOV3 after 48 hrs by spectrophotometry; format: functional, cell-based; conditions: SK-OV-3, 48 h
[22] = Cytotoxicity against human A2780cis cells; format: functional, cell-based; conditions: A2780cisR
[23] = system: A-375; assay: Antiproliferative activity against human A375 after 48 hrs by spectrophotometry; format: functional, cell-based; conditions: A-375, 48 h
[24] = Antiproliferative activity against human HAAE1 grown in absence of growth factors after 48 hrs by spectrophotometry; format: functional
[25] = Antiproliferative activity against human U87MG after 48 hrs by spectrophotometry; format: functional, U-87MG ATCC; conditions: U-87 MG
[26] = system: A2780; assay: Cytotoxicity against human A2780 cells; format: functional, cell-based
[27] = Drug uptake in tumor of MDA-MB-231 breast cancer BALB/c mouse model at 1 to 150 mg/kg, iv measured after 24 hrs; format: ADME, organism-based; design: dose 1-150 mg/kg, route intravenous; conditions: in vivo
[28] = system: LoVo; assay: Antiproliferative activity against human LoVo after 48 hrs by spectrophotometry; format: functional, cell-based
[29] = Antiproliferative activity against human HAAE1 grown in presence of growth factors after 48 hrs by spectrophotometry; format: functional
[30] = Cytotoxicity against human A2780/ADR cells; format: functional, cell-based

Row | Structure (SMILES) | IC50 [4] [nM] | IC50 [14] [nM] | IC50 ([7]; read-out: IC50) [nM] | IC50 [15] [nM] | Ratio IC50 [17] | further results
1 | COc1ccc(/C=C\c2cc(OC)c(OC)c(OC)c2)cc1O [COMBRETASTATIN A4] | 3.9 |  |  |  |  | IC50 [1]: 3.5 nM; Vdss [2]: 7.3 L/kg; IC50 [3]: 4 nM; IC50 [5]: 188 nM; PPB [6]: 98.9%; IC50 [7]: 3.6 nM; IC50 [8]: 0.94 nM; IC50 [9]: 4.4 nM; t1/2 [10]: 0.7 h
2 | COc1cc(C(=O)c2c(C)oc3c(OP(=O)([O-])[O-])c(OC)ccc23)cc(OC)c1OC.[Na+].[Na+] |  |  |  |  |  | growth inhibition (GI) [11]: Active; growth inhibition (GI) [12]: Active; solubility [13]: soluble
3 | COc1cc(C(=O)c2coc3c(O)c(OC)ccc23)cc(OC)c1OC | 322 | 45 | 83 |  |  | 
4 | COc1ccc(-c2sccc2C(=O)c2cc(OC)c(OC)c(OC)c2)cc1O |  |  |  | 1000 |  | 
5 | COc1ccc(/C=C\c2cc(OC)c(OC)c(OC)c2)cc1OP(=O)(O)O |  |  |  |  |  | growth inhibition (GI) [16]: Active
6 | COc1cc(C(=O)c2c(-c3ccco3)oc3c(O)c(OC)ccc23)cc(OC)c1OC | 3.4 | 0.6 | 3.6 | 8700 | 0.9 | 
7 | COC(=O)/C=C/c1oc2c(O)c(OC)ccc2c1C(=O)c1cc(OC)c(OC)c(OC)c1 | 2.3 |  | 0.38 |  | 6 | 
8 | COc1ccc2c(C(=O)c3cc(OC)c(OC)c(OC)c3)coc2c1 | 63 | 55 | 45 | 1600 | 1.4 | 
9 | COc1cc(C(=O)c2c(-n3cccc3)oc3c(O)c(OC)ccc23)cc(OC)c1OC | 3.3 |  |  |  |  | 
10 | COc1cc(C(=O)c2c(-c3cnn(C)c3)oc3c(OC(C)C)c(OC)ccc23)cc(OC)c1OC | 419 | 42 | 665 |  | 0.6 | 
11 | COc1cc(C(=O)c2c(-c3cnn(C)c3)oc3c(O)c(OC)ccc23)cc(OC)c1OC | 0.7 | 1 | 0.4 | 1300 | 1.8 | 
12 | COc1ccc2c(C(=O)c3cc(OC)c(OC)c(OC)c3)c(-c3ccc(O)cc3)oc2c1 | 34 | 48 | 30 | 2300 | 1.1 | 
13 | CC(=O)O[C@H]1C(=O)[C@@]2(C)[C@H]([C@H](OC(=O)c3ccccc3)[C@]3(O)C[C@H](OC(=O)[C@H](O)[C@@H](NC(=O)c4ccccc4)c4ccccc4)C(C)=C1C3(C)C)[C@]1(OC(C)=O)CO[C@@H]1C[C@@H]2O [PACLITAXEL] |  |  |  |  |  | IC50 [18]: 4 nM; IC50 [19]: 31 nM
14 | COc1ccc2c(C(=O)c3cc(OC)c(OC)c(OC)c3)c(-c3ccc(OC)nc3)oc2c1 | 27 | 71 | 45 |  | 0.6 | 
15 | COc1ccc2c(C(=O)c3cc(OC)c(OC)c(OC)c3)c(Br)oc2c1 | 309 |  | 510 |  | 0.6 | 
16 | COc1cc(C(=O)c2c(NCCN(C)C)oc3c(O)c(OC)ccc23)cc(OC)c1OC | 36 |  | 29 |  | 1.2 | 
17 | COc1cc(C(=O)c2c(C)oc3c(O)c(OC)ccc23)cc(OC)c1OC | 25 | 2.4 | 0.31 | 3000 |  | IC50 [1]: 0.34 nM; IC50 [20]: 0.63 nM; Vdss [2]: 7.1 L/kg; IC50 [21]: 0.59 nM; IC50 [22]: 0.01 nM; IC50 [23]: 1.5 nM; IC50 [24]: 12 nM; IC50 [25]: 0.41 nM; IC50 [3]: 0.36 nM; IC50 [26]: 0.03 nM; Drug uptake [27]: 64%; solubility [13]: Insoluble; IC50 [28]: 0.24 nM; IC50 [8]: 0.16 nM; IC50 [9]: 5.8 nM; IC50 [29]: 0.1 nM; t1/2 [10]: 3.5 h; IC50 [30]: 0.06 nM
18 | COc1ccc2c(C(=O)c3cc(OC)c(OC)c(OC)c3)c(N3CCN(C)CC3)oc2c1 | 405 | 215 | 484 |  | 0.8 | 
19 | COc1cc(C(=O)c2c(-c3cccs3)oc3c(O)c(OC)ccc23)cc(OC)c1OC | 0.36 | 0.5 | 0.31 |  | 1.2 | 
20 | COc1cc(C(=O)c2c(/C=C/C(N)=O)oc3c(O)c(OC)ccc23)cc(OC)c1OC | 2.3 |  | 2.6 |  | 0.9 | 
21 | COc1ccc2c(C(=O)c3cc(OC)c(OC)c(OC)c3)c(-c3ccc4c(ccn4C)c3)oc2c1 | 32 |  | 41 | 1300 | 0.8 | 
22 | COc1cc(C(=O)c2c(C#N)oc3c(O)c(OC)ccc23)cc(OC)c1OC | 3 |  | 1.1 |  | 2.7 | 
23 | COc1ccc2c(C(=O)c3cc(OC)c(OC)c(OC)c3)c(-c3ccc(OC)c(N)c3)oc2c1 | 44 | 26 | 32 | 1900 | 1.4 | 
24 | COc1cc(C(=O)c2c(NCCO)oc3c(O)c(OC)ccc23)cc(OC)c1OC | 2.9 |  | 3.1 |  | 0.9 | 
25 | CC[C@]1(O)C[C@@H]2CN(CCc3c([nH]c4ccccc34)[C@@](C(=O)OC)(c3cc4c(cc3OC)N(C)[C@H]3[C@@](O)(C(=O)OC)[C@H](OC(C)=O)[C@]5(CC)C=CCN6CC[C@]43[C@@H]65)C2)C1 [VINBLASTINE] |  |  |  |  |  | IC50 [18]: 0.31 nM; IC50 [19]: 4.5 nM
26 | COc1ccc(-c2oc3c(O)c(OC)ccc3c2C(=O)c2cc(OC)c(OC)c(OC)c2)cc1O | 3.4 | 4 | 1.7 | 800 | 2 | 
27 | COc1cc(C(=O)c2c(N)oc3c(O)c(OC)ccc23)cc(OC)c1OC | 8.8 |  | 1.9 |  | 4.6 | 
28 | CC[C@]1(O)C[C@H]2CN(CCc3c([nH]c4ccccc34)[C@@](C(=O)OC)(c3cc4c(cc3OC)N(C=O)[C@H]3[C@@](O)(C(=O)OC)[C@H](OC(C)=O)[C@]5(CC)C=CCN6CC[C@]43[C@@H]65)C2)C1 [VINCRISTINE] |  |  |  |  |  | IC50 [18]: 1.2 nM; IC50 [19]: 37 nM
